Measured values published in publication PMC4980693, “TRPV4 regulates calcium homeostasis, cytoskeletal remodeling, conventional outflow and intraocular pressure in the mammalian eye” (Scientific Reports, 2016).

Assays:
[1] = target: T1, TRPV4 (transient receptor potential vanilloid 4) (Homo sapiens, UniProt Q9HBA0); assay: whole-cell patch clamp and Fura-2 Ca2+ imaging in human trabecular meshwork cells (endogenous channel), agonist; type: cell-based
[2] = target: T1, TRPV4 (transient receptor potential vanilloid 4); assay: inhibition of GSK101 ([…])-induced Ca2+ signals in human trabecular meshwork cells (Fura-2); putative prodrug analog of HC-067047; type: cell-based

T1 sequence (Q9HBA0 whole entry): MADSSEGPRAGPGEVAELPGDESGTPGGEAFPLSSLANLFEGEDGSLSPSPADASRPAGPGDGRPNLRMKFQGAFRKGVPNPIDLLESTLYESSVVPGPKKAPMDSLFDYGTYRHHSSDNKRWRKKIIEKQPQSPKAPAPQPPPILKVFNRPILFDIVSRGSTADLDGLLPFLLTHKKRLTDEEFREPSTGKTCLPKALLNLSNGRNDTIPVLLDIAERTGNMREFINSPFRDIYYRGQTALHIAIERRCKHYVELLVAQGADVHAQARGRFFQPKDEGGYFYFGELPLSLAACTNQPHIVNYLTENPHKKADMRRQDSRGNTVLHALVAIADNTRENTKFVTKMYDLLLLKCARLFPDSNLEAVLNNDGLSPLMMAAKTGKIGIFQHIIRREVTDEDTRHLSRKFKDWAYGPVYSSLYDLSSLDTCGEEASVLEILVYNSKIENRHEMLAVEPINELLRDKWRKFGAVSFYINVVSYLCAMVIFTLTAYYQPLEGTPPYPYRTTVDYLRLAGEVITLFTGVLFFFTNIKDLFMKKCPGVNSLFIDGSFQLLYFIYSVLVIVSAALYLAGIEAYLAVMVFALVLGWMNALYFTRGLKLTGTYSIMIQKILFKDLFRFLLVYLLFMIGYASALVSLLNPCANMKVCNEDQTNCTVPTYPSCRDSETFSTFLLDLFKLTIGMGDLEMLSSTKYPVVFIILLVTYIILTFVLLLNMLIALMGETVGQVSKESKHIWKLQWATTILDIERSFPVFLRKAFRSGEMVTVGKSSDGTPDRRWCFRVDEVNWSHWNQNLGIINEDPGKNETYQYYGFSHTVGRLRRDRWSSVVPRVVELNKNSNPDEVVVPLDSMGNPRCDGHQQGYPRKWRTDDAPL

Compound | EC50 [1] | IC50 [2]
CC(C)C[C@H](NC(=O)c1cc2ccccc2s1)C(=O)N1CCN(C(=O)[C@H](CO)NS(=O)(=O)c2ccc(Cl)cc2Cl)CC1 [GSK101, GSK1016790A] | ~25 nM | 
Cc1c(C(=O)Nc2cccc(C(=O)OC(C)C)c2)cc(-c2ccccc2)n1CCCN1CCOCC1 [YX-02, isopropyl 3-(2-methyl-1-(3-morpholinopropyl)-5-phenyl-1H-pyrrole-3-carboxamido)benzoate] |  | 740 ± 40 nM
